Tests used:
Test in all cases: relative viability (nuclei count vs DMSO), 5 days (fraction); higher = more cells survive
[1] = compound: C1CN(CCN1)C2=CC=C(C=C2)C3=CN4C(=C(C=N4)C5=CC=NC6=CC=CC=C56)N=C3 [DM3189] + Cc1nc(Nc2ncc(C(=O)Nc3c(C)cccc3Cl)s2)cc(N2CCN(CCO)CC2)n1 [Dasatinib] (partner 0.075 µM)
In short: (§1)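 Lung cancer cell lines in 1536-well plates got either a single drug or a fixed anchor-drug dose together with five library-drug doses (not always all listed) in √10 steps, by pin tool, on the day after seeding. Nuclei were counted after 5 days, and relative viability is the treated-to-vehicle ratio of nuclei counts. Values are medians of duplicate plates.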

[2] = compound: C1CN(CCN1)C2=CC=C(C=C2)C3=CN4C(=C(C=N4)C5=CC=NC6=CC=CC=C56)N=C3 [DM3189] + CS(=O)(=O)CCNCc1ccc(-c2ccc3ncnc(Nc4ccc(OCc5cccc(F)c5)c(Cl)c4)c3c2)o1 [Lapatinib] (partner 2 µM)
In short: as §1

[3] = compound: C1CN(CCN1)C2=CC=C(C=C2)C3=CN4C(=C(C=N4)C5=CC=NC6=CC=CC=C56)N=C3 [DM3189] + Cc1nc(NC(=O)N2CCC[C@H]2C(N)=O)sc1-c1ccnc(C(C)(C)C(F)(F)F)c1 [Alpelisib] (partner 2 µM)
In short: as §1

[4] = compound: C1CN(CCN1)C2=CC=C(C=C2)C3=CN4C(=C(C=N4)C5=CC=NC6=CC=CC=C56)N=C3 [DM3189] + N=C(N)NC(=N)NCCc1ccccc1 [Phenformin] (partner 250 µM)
In short: as §1

[5] = compound: C1CN(CCN1)C2=CC=C(C=C2)C3=CN4C(=C(C=N4)C5=CC=NC6=CC=CC=C56)N=C3 [DM3189] + NC(=O)Nc1cc(-c2cccc(F)c2)sc1C(=O)N[C@H]1CCCNC1 [AZD7762] (partner 0.2 µM)
In short: as §1

Cell Line	relative viability ([1]; first compound 0.08 µM)	relative viability ([1]; first compound 0.253 µM)	relative viability ([1]; first compound 0.8 µM)	relative viability ([1]; first compound 2.53 µM)	relative viability ([2]; first compound 0.08 µM)	relative viability ([2]; first compound 0.253 µM)	relative viability ([2]; first compound 0.8 µM)	relative viability ([2]; first compound 2.53 µM)	relative viability ([3]; first compound 0.08 µM)	relative viability ([3]; first compound 0.253 µM)	relative viability ([3]; first compound 0.8 µM)	relative viability ([3]; first compound 2.53 µM)	relative viability ([4]; first compound 0.08 µM)	relative viability ([4]; first compound 0.253 µM)	relative viability ([4]; first compound 0.8 µM)	relative viability ([4]; first compound 2.53 µM)	relative viability ([5]; first compound 0.08 µM)	relative viability ([5]; first compound 0.253 µM)	relative viability ([5]; first compound 0.8 µM)	relative viability ([5]; first compound 2.53 µM)
COR-L23	0.543	0.525	0.458	0.525	1.08	0.962	0.514	0.743	0.749	0.634	0.645	0.636	0.472	0.439	0.402	0.408	–	–	–	–
COR-L 105	0.427	0.449	0.348	0.327	0.432	0.362	0.312	0.281	1.17	1.16	1.01	1.26	0.534	0.53	0.433	0.297	–	–	–	–
ChaGo-K-1	0.734	0.563	0.561	0.535	–	–	–	–	–	–	–	–	0.53	0.467	0.455	0.432	0.919	0.857	0.605	0.83
HCC-44	–	–	–	–	1.13	0.743	0.792	1.02	0.874	0.942	0.631	0.757	0.218	0.155	0.178	0.153	0.984	1.03	0.92	0.996
IA-LM	–	–	–	–	1.09	–	0.855	1.02	1.24	0.581	0.963	1.31	–	–	–	–	–	–	–	–
LCLC-103H	0.607	0.457	0.393	0.339	–	–	–	–	0.994	0.979	0.912	0.975	0.357	0.315	0.286	0.304	0.909	0.817	0.764	0.818
NCI-H441	0.69	0.581	0.625	0.513	–	–	–	–	0.877	0.595	0.837	0.467	0.825	0.959	0.794	0.738	1.25	0.862	1.16	1.35
NCI-H520	0.24	0.219	0.258	0.197	0.902	0.679	0.644	0.42	0.837	0.633	0.637	0.48	0.577	0.309	0.324	0.366	–	–	–	–
NCI-H522	1.04	0.929	0.838	0.8	–	–	–	–	–	–	–	–	0.675	0.591	0.592	0.617	0.949	0.775	0.648	0.704
NCI-H661	1.05	0.832	0.787	0.862	0.564	0.579	0.53	0.614	0.817	0.802	0.674	0.814	0.268	0.271	0.268	0.281	–	–	–	–
NCI-H1650	0.333	0.391	0.304	0.316	0.838	0.806	0.71	0.777	–	–	–	–	0.5	0.347	0.387	0.354	–	–	–	–
NCI-H1703	–	–	–	–	1.2	1.15	1.17	1.14	0.389	0.366	0.384	0.285	–	–	–	–	0.122	0.191	0.119	0.135
NCI-H2009	0.287	0.267	0.263	0.244	1.13	0.888	0.684	0.916	1.17	1.16	1.13	1.15	0.526	0.471	0.438	0.445	–	–	–	–
NCI-H2023	0.781	0.595	0.363	0.46	1.1	0.739	0.503	0.286	0.586	0.633	0.574	0.63	0.368	0.363	0.428	0.347	–	–	–	–
NCI-H2228	0.577	0.41	0.545	0.245	1.51	1.08	0.865	0.263	0.683	0.79	0.513	0.211	0.368	0.344	0.29	0.189	–	–	–	–
SK-LU-1	0.143	0.109	0.104	0.136	0.864	0.718	0.583	0.459	0.932	0.677	0.638	0.377	0.479	0.383	0.33	0.314	–	–	–	–
SK-MES-1	0.322	0.263	0.265	0.237	0.458	0.416	0.456	0.402	0.937	0.873	0.738	0.782	0.679	0.62	0.587	0.662	–	–	–	–
SW 900	0.733	0.373	0.449	0.567	–	–	–	–	–	–	–	–	0.599	0.465	0.535	0.568	0.574	–	0.515	0.645
SW 1573	0.741	0.389	0.46	0.382	1.1	0.944	1.16	1.23	0.869	0.59	0.711	0.774	0.318	0.349	0.296	0.285	–	–	–	–
UMC-11	0.467	0.429	0.467	0.401	1.2	1.04	0.868	0.751	0.994	0.998	0.794	0.749	0.348	0.321	0.349	0.356	–	–	–	–
